Experimental data from ChEMBL document CHEMBL1201862, “PubChem BioAssay data set” (2004).
The source made the active and inactive calls.

Columns and labels:
Protein skinhead-1 = target: T1, Protein skinhead-1 (Caenorhabditis elegans, UniProt P34707); type: functional
T1 sequence (P34707 whole entry): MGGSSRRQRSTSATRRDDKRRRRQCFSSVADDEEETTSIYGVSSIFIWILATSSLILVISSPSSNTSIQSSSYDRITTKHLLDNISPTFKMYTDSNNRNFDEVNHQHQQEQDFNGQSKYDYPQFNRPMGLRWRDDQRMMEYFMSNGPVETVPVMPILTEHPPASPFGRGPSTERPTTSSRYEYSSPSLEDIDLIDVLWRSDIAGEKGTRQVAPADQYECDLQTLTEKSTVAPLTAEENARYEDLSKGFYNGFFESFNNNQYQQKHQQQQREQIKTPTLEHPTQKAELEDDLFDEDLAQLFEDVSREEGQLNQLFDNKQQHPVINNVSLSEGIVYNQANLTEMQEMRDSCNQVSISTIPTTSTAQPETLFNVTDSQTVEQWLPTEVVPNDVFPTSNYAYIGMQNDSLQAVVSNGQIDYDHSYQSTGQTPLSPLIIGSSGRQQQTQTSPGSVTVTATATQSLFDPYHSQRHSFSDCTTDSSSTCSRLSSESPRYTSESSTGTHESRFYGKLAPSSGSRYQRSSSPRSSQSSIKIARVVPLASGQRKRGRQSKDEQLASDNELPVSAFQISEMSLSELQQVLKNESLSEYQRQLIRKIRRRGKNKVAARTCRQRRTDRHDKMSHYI

Cytochrome P450 1A2 = target: T2, Cytochrome P450 1A2 (Homo sapiens, UniProt P05177);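 note: PubChem cytochrome P450 panel assay, CYP1A2 panel member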
T2 sequence (P05177 whole entry): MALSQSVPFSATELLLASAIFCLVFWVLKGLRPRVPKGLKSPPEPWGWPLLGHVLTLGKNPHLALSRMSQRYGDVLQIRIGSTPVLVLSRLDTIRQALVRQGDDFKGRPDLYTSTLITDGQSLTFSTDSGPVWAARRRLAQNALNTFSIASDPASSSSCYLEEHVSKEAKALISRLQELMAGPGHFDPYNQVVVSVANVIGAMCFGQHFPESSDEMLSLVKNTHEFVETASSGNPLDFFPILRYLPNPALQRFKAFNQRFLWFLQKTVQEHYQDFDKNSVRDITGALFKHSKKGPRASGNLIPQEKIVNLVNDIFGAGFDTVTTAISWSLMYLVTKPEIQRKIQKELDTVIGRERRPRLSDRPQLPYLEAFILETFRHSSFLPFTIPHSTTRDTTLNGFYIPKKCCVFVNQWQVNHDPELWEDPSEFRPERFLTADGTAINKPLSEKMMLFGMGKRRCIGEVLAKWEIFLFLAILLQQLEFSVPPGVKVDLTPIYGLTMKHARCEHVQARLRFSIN

Protein RecA = target: T3, Protein RecA (Mycobacterium tuberculosis, UniProt P9WHJ3); test: Fluorescence Cell-Free Homogeneous Dose Retest to Identify Inhibitors of RecA-Intein Splicing Activity. [Related pubchem assays (depositor defined):AID2097, AID2223, AID489010, AID492950]; type: functional
T3 sequence (P9WHJ3 whole entry): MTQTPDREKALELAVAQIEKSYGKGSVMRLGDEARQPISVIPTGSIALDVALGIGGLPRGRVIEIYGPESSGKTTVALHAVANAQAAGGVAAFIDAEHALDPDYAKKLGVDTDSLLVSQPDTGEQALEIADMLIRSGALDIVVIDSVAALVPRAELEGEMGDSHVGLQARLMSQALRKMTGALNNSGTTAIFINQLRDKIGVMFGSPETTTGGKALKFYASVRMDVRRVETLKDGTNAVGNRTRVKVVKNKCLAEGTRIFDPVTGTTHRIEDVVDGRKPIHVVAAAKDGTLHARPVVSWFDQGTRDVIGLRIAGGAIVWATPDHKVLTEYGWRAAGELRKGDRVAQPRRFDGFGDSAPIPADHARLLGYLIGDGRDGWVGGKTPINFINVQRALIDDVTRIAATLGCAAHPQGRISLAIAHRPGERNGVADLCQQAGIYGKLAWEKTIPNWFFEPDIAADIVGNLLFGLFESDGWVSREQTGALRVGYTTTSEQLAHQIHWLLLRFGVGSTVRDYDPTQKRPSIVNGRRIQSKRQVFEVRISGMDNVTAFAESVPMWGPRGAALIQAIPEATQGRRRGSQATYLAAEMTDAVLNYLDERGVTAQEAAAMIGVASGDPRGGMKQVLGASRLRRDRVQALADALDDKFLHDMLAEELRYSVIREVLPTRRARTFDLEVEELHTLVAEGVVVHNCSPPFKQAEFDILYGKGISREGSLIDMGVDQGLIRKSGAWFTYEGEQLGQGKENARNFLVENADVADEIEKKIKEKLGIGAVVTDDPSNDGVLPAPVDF

Cytochrome P450 2C9 = Cytochrome P450 2C9 (Homo sapiens, UniProt P11712)
[1] = target: T4, Replicative DNA helicase DnaB (Mycobacterium tuberculosis, UniProt P9WMR3); test: DnaB intein splicing inhibitors, dose response, biochemical, cell-free fluorescence (AID 449749); type: functional
T4 sequence (P9WMR3 whole entry): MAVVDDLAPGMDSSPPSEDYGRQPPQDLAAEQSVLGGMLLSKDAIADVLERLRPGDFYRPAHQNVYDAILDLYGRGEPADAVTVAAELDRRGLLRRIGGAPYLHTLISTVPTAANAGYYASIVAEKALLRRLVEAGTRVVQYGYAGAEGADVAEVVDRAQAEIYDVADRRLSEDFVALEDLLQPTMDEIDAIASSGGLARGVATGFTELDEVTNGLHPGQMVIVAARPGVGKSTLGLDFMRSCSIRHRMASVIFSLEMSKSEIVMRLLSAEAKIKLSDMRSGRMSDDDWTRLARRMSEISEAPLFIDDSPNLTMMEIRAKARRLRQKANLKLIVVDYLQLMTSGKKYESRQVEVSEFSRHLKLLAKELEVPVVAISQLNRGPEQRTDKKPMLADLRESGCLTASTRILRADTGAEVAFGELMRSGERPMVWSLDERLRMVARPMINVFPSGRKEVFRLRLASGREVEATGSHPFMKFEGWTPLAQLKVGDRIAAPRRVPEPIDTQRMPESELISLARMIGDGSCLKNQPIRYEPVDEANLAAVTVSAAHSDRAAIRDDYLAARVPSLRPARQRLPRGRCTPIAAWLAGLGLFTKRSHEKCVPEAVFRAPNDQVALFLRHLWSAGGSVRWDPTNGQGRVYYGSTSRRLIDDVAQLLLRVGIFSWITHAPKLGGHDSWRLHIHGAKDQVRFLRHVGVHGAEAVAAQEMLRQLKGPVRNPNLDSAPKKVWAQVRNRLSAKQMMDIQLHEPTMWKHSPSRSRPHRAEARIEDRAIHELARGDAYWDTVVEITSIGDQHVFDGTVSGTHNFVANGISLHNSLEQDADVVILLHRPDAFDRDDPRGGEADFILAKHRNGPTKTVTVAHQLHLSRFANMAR

Cytochrome P450 2D6 = Cytochrome P450 2D6 (Homo sapiens, UniProt P10635);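 note: CYP2D6 member of a cytochrome P450 panel assay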
Cytochrome P450 2C19 = Cytochrome P450 2C19 (Homo sapiens, UniProt P33261); test: Cytochrome panel assay with activity outcomes. Panel member name: p450-cyp2c19 Compounds with AC50 equal or less than 10 uM are considered active; type: functional
[2] = target: T5, Corticotropin-releasing factor receptor 2/Corticotropin-releasing factor-binding protein (Homo sapiens, UniProt P24387+Q13324); test: activators of CRF receptor 2 with binding protein – uHTS hits, confirmation (AID 602473); type: functional; conditions: read-out: EC50_Mean
T5 sequence (Q13324 whole entry): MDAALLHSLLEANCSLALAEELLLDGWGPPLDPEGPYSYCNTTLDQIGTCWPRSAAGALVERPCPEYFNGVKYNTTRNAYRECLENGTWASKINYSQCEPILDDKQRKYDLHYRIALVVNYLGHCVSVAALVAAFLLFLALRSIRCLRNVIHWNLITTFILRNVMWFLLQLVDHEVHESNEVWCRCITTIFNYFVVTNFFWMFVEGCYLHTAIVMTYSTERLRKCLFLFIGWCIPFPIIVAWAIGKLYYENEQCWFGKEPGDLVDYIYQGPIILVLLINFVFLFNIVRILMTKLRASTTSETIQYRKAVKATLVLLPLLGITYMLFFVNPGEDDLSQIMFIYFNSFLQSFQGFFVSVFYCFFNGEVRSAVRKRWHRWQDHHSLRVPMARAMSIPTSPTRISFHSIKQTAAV
T5 sequence (P24387 whole entry): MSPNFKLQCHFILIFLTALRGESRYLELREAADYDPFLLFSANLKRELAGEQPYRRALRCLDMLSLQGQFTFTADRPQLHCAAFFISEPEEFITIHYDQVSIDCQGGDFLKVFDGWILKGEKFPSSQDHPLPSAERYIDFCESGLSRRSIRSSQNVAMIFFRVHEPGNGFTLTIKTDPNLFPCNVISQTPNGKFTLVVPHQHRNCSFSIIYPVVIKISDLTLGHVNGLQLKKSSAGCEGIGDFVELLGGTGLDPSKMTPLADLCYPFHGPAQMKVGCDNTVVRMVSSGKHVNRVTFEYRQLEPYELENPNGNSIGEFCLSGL

Chain of Cytochrome P450 2C19 (P33261 whole entry): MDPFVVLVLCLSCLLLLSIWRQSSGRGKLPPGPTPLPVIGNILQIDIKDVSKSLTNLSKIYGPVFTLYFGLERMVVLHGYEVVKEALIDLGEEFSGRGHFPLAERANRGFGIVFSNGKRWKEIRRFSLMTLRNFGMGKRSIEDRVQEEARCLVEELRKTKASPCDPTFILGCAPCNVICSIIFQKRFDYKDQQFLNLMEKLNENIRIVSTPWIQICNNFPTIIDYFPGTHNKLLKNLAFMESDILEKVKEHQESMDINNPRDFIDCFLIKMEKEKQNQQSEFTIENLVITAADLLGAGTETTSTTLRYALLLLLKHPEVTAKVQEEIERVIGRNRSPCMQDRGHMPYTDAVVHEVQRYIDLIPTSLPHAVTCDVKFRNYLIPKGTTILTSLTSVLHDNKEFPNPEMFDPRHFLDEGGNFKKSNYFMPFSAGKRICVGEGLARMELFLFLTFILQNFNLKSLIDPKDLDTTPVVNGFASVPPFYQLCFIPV
Chain of Cytochrome P450 2C9 (P11712 whole entry): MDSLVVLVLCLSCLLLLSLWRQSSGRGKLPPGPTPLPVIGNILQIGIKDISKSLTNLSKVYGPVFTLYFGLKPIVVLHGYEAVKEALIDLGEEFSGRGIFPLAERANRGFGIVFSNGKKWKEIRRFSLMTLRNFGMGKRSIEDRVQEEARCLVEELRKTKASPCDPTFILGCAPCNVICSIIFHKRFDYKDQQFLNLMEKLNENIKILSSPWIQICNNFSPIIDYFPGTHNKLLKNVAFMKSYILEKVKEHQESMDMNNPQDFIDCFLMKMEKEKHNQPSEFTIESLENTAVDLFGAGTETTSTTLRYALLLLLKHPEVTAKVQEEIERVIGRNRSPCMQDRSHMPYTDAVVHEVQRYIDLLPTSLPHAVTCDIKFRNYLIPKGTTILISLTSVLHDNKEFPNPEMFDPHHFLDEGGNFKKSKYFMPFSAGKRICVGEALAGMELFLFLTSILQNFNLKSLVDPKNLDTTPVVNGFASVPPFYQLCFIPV
Chain of Cytochrome P450 2D6 (P10635 whole entry): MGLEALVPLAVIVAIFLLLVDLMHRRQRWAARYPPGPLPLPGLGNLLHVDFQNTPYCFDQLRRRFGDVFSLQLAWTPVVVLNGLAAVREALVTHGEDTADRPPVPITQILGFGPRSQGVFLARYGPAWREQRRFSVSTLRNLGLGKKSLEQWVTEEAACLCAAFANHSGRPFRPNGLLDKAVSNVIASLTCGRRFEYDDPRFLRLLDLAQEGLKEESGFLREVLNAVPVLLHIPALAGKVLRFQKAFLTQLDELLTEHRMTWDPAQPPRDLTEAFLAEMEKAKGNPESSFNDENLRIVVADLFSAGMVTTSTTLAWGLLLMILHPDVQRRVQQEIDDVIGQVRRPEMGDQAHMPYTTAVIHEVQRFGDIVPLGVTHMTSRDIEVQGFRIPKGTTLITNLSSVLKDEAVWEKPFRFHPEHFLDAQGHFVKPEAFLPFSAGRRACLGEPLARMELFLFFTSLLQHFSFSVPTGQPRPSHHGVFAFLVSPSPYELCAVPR

Row | Structure (SMILES) | IC50 (Protein skinhead-1) | AC50 (Cytochrome P450 1A2) | also measured
1 | CCN(CC(=O)Nc1ccccc1C(F)(F)F)C(=O)C1CC(=O)N(Cc2ccccc2)C1 (configuration not stated) | > 100 µM (inactive) |  | 
2 | Cc1cc(CC(=O)O)n(C)c1C(=O)c1ccc(Cl)cc1 [ZOMEPIRAC SODIUM] |  | 12.6 µM (inconclusive) | 
3 | O=[N+]([O-])c1ccc2cn(-c3ccccc3)nc2c1 | 54.4 µM (inactive) |  | 
4 | Nc1nc(-c2ccc(-c3ccccc3)cc2)cs1 | > 100 µM (inactive) |  | 
5 | CC1(c2ccc(Cl)cc2)NC(=O)N(CN2CCOCC2)C1=O (configuration not stated) | > 100 µM (inactive) |  | 
6 | COc1ccc(C2C(C#N)=C(N)Oc3[nH]nc(C)c32)cc1CN1CCN(c2ccc(F)cc2)CC1 (configuration not stated) |  |  | EC50 (Protein RecA): 6.55 µM (active); AC50 (Cytochrome P450 2C9): 35.5 µM (inconclusive); AC50 [1]: 10.3 µM (active); AC50 (Cytochrome P450 2D6): 25.1 µM (inconclusive)
7 | Cc1ccc(CN2CC34C=CC(O3)C(C(=O)NCc3ccc5c(c3)OCO5)C4C2=O)cc1 (configuration not stated) |  | 17.8 µM (inconclusive) | AC50 (Cytochrome P450 2C9): 12.6 µM (inconclusive)
8 | Cc1cc2ccccc2n1CCNC(=O)c1ccc(S(=O)(=O)N2CCOCC2)cc1 | > 100 µM (inactive) |  | 
9 | CCCC(C(=O)NCC1CCCO1)N(Cc1ccccc1)C(=O)CNS(=O)(=O)c1ccccc1 (configuration not stated) | > 100 µM (inactive) |  | 
10 | CC(/C=N\NC(=O)Cn1c(C)nc2ccccc21)=C\c1ccccc1 |  | 8.91 µM (inconclusive) | AC50 (Cytochrome P450 2C19; read-out: AC50): 0.562 µM (inconclusive)
11 | COc1ccccc1C(=O)Nc1ccc(Br)cc1C | > 100 µM (inactive) |  | 
12 | CN1CCN(c2ncc3nc(-c4cccc(C#N)c4)c(=O)n(C)c3n2)CC1 |  | 12.6 µM (inconclusive) | AC50 (Cytochrome P450 2C9): 39.8 µM (inconclusive)
13 | CCCC/C=C/C(NC(=O)C(C)(C)C)c1ccccc1 (configuration not stated) |  | 20 µM (inconclusive) | AC50 (Cytochrome P450 2C9): 39.8 µM (inconclusive); AC50 (Cytochrome P450 2D6): 20 µM (inconclusive)
14 | Nc1nc(-c2ccc(Oc3ccccc3)cc2)cs1 | 98.1 µM (inactive) |  | 
15 | NCCCCCCCCCCNS(=O)(=O)c1cccc2c(Cl)cccc12 |  | 15.8 µM (inconclusive) | 
16 | O=C=Nc1ccc(Cc2ccc(N=C=O)cc2)cc1.O=c1oc(=O)c2cc3c(=O)oc(=O)c3cc12 |  | 5.01 µM (inconclusive) | 

Row | Structure (SMILES) | IC50 (Protein skinhead-1) | AC50 (Cytochrome P450 1A2) | also measured
17 | CCN(CC)Cc1c(O)c(Cl)cc2c3c(c(=O)oc12)CCCC3 |  | 11.2 µM (inconclusive) | AC50 (Cytochrome P450 2C19): inconclusive; AC50 (Cytochrome P450 2C9): 25.1 µM (inconclusive)
18 | CCCCn1cnc2c(c(CC#N)nn2-c2ccccc2)c1=N |  | 1 µM (inconclusive) | AC50 (Cytochrome P450 2C19; read-out: AC50): 6.31 µM (inconclusive)
19 | Cc1noc(C)c1-c1ccc2ncnc(N3CCC(C(=O)O)CC3)c2c1 |  | 25.1 µM (inconclusive) | 
20 | CCOC(=O)c1c(/N=C/C2C(=O)NC(=S)NC2=O)sc2c1CCC2 |  |  | EC50 [2]: > 53 µM (inactive)
21 | Cc1ccccc1CNC(=O)c1ccc2sc([C@H]3C[C@H](O)[C@@H](CO)O3)nc2c1 | > 100 µM (inactive) |  | 
22 | COc1ccccc1N1CCN(CCCCN2C(=O)CCC2=O)CC1 |  | 39.8 µM (inconclusive) | 
23 | COc1cc2c(cc1OC)C(C(=O)Nc1ccccn1)C(c1cccnc1)N(C)C2=O (configuration not stated) |  | 25.1 µM (inconclusive) | AC50 (Cytochrome P450 2C9): 11.2 µM (inconclusive)
24 | Cc1cc(N2CCOCC2)nc(N)n1 |  |  | EC50 [2]: 10.4 µM (active)
25 | Cc1n[nH]c2c1C1(CCN(C(=O)c3ccccc3)CC1)C(C#N)=C(N)O2 |  |  | EC50 (Protein RecA): 1.3 µM (active); AC50 [1]: 7.89 µM (active)
26 | N#C/C(=C/c1ccc(-c2ccc([N+](=O)[O-])cc2)o1)c1nnc(N2CCOCC2)n1-c1ccccc1 |  |  | EC50 [2]: 11 µM (active)
27 | CCOc1cc(NC(=O)c2ccco2)c(OCC)cc1NC(=O)CCc1ccccc1OC | > 100 µM (inactive) |  | 
28 | Cn1nc(C(=O)N2CCN(S(=O)(=O)c3ccccc3)CC2)c2ccccc2c1=O | > 100 µM (inactive) |  | 
29 | Oc1ccc(Nc2nc(-c3ccc(O)cc3)cs2)cc1 |  |  | EC50 (Protein RecA): 43.8 µM (active); AC50 [1]: 111 µM (active)
30 | CCCc1n[nH]c2c1C(c1ccc(OC)cc1OC)C(C#N)=C(N)O2 (configuration not stated) |  |  | EC50 (Protein RecA): 4.07 µM (active); AC50 [1]: 6.28 µM (active)
31 | O=C(C=Cc1ccccc1)c1cc(Br)ccc1O | > 100 µM (inactive) |  | 
32 | COc1ccc(-c2ccc(C3C(C#N)=C(N)Oc4[nH]nc(C)c43)o2)cc1 (configuration not stated) |  |  | EC50 [2]: 10.1 µM (active)
